Test results from patent US20240239790A1, “7-Morpholino-1,6-Naphthyridin-5-yl Derivatives and Pharmaceutical Compositions Thereof Useful as DNA-PK Inhibitor” (adMare Therapeutics Society, priority 2021, published 2024).
Read-outs that look alike come from different tables or passages of the source.

Columns and labels:
[1] = molecular target: T1, DNA-PK phosphorylation at Serine 2056 (Homo sapiens, UniProt P78527); experiment: Cellular Assay for Inhibition of DNA-PK Phosphorylation at Serine 2056 in FaDu cells (sandwich ELISA, neocarzinostatin); type: cell-based; conditions: pSer2056 DNA-PK, Table 3
T1 construct: FaDu cells were purchased from ATCC; host or cells: FaDu
In short: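 FaDu cells pre-treated with compound (0.3% DMSO) for 1 h, then neocarzinostatin 1 μg/mL final added for 2 h to induce DSBs. Protein-normalised lysates read by sandwich ELISA for total and pSer2056 DNA-PK; % inhibition normalised between DMSO and NCS controls, IC50 from variable-slope log(inhibitor) fit.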

[2] = system: pH2AX induction in HCT116 ATM-/- multicellular tumour spheroids; experiment: Prodrug Radiation Sensitization in Multicellular Tumour Spheroids, inhibition of pH2AX induction following radiation; type: cell-based; conditions: Homo sapiens, HCT-116, 20 Gy
In short: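 HCT116 and FaDu spheroids (~0.5 mm diameter), ATM-deficient lines included, in MEM/10% FBS/10 mM glucose at 37 °C under 20% vs 5% oxygen with stirring. Prodrugs 10 μM down to 3.5 nM, 20 Gy irradiation. pDNA-PK (ser 2056) or pH2AX (ser 139) scored in formalin-fixed cryosections 1 or 2 h post-radiation.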

FaDu cell line = experiment: Prodrug Activation in Hypoxic Stirred Tumour Cell Suspensions; conditions: 10 μM, 4 hours
Description: Prodrug compounds were assayed to determine their stability and rate of activation in stirred cell suspensions under 0.2 vs 5% oxygen. Compounds were diluted 1:1000 from DMSO stocks to 10 μM final concentration in tumour cell suspensions (1% by cell volume) in MEM media containing 10% FBS, 10 mM glucose & 3.7 g/L sodium bicarbonate. Cell lines assayed included A253, A549, Detroit562, FaDu, HCT116, HEP G2, HT29, SCC25, SCC9, SiHa & TC32. Compounds and cells were then incubated for 4 hours under constant mixing at 37° C. under 5% CO2 and either 0.2 or 5% O2. Following the incubation period cellular activation of the compounds was assayed via MeOH extraction and HPLC quantification.

[3] = 5% O2, inner layers, read-out: Prodrug 5% O2 Inner layers EC50
[4] = 5% O2, outer layers, read-out: Prodrug 5% O2 Outer layers EC50
[5] = 20% O2, outer layers, read-out: Prodrug 20% O2 Outer layers EC50

In the case of `CC(c1cnn(C)c1[N+](=O)[O-])N(c1cnc2cc(N3CCOCC3)nc(O[C@H]3CC[C@@H](Nc4ncc(OC5CCN(C)C5)cn4)CC3)c2c1)S(C)(=O)=O` (stereo partly drawn) [LFA2064, N-[1-(1-methyl-5-nitro-pyrazol-4-yl)ethyl]-N-[5-[4-[[5-(1-methylpyrrolidin-3-yl)oxypyrimidin-2-yl]amino]cyclohexoxy]-7-morpholino-1,6-naphthyridin-3-yl]methanesulfonamide], the IC50 [1] is reported as 1000 to 10000 nM, the EC50 [2, 3] is reported as 10 to 500 nM and the EC50 [2, 4] is reported as 1000 to 10000 nM. For the same compound, the EC50 [2, 5] was 1000 to 10000 nM, the “Fraction of prodrug converted to active form, Hypoxic 0.2% O2” value (shortened to “Fraction … Hypoxic 0.2% O2”) (FaDu cell line) was “B (B is 0.05 to 0.15)” and the “Fraction of prodrug converted to active form, Oxic 5% O2” value (from here on “Fraction … Oxic 5% O2”) (FaDu cell line) was “C (C is 0.02 to 0.05)”.
`CN1CCN(c2cnc(N[C@H]3CC[C@@H](Oc4nc(N5CCOCC5)cc5ncc(OCc6cnc([N+](=O)[O-])n6C)cc45)CC3)nc2)CC1` [LFA2065, N-[4-[[3-[(3-methyl-2-nitro-imidazol-4-yl)methoxy]-7-morpholino-1,6-naphthyridin-5-yl]oxy]cyclohexyl]-5-(4-methylpiperazin-1-yl)pyrimidin-2-amine] was tested, and the IC50 [1] was 10000 to 30000 nM, the EC50 [2, 3] was 10 to 500 nM and the EC50 [2, 4] was 1000 to 10000 nM. The EC50 [2, 5] was 1000 to 10000 nM, the “Fraction … Hypoxic 0.2% O2” value (FaDu cell line) was “A (A is 0.15 to 1)” and the “Fraction … Oxic 5% O2” value (FaDu cell line) was “C (C is 0.02 to 0.05)”.
Work on `CC(Oc1cnc2cc(N3CCOCC3)nc(O[C@H]3CC[C@@H](Nc4ncc(N5CCN(C)CC5)cn4)CC3)c2c1)c1cnc([N+](=O)[O-])n1C` (stereo partly drawn) [LFA2066, N-[4-[[3-[1-(3-methyl-2-nitro-imidazol-4-yl)ethoxy]-7-morpholino-1,6-naphthyridin-5-yl]oxy]cyclohexyl]-5-(4-methylpiperazin-1-yl)pyrimidin-2-amine] yielded an IC50 [1] of 10000 to 30000 nM, an EC50 [2, 3] of 10 to 500 nM and an EC50 [2, 4] of 1000 to 10000 nM. For the same compound, the EC50 [2, 5] was 1000 to 10000 nM, the “Fraction … Hypoxic 0.2% O2” value (FaDu cell line) was “A (A is 0.15 to 1)” and the “Fraction … Oxic 5% O2” value (FaDu cell line) was “B (B is 0.05 to 0.15)”.
With `CC(c1cnn(C)c1[N+](=O)[O-])N(c1cnc2cc(N3CCOCC3)nc(O[C@H]3CC[C@@H](Nc4ncc(N5CCN(C)CC5)cn4)CC3)c2c1)S(C)(=O)=O` (stereo partly drawn) [LFA2067, N-[1-(1-methyl-5-nitro-pyrazol-4-yl)ethyl]-N-[5-[4-[[5-(4-methylpiperazin-1-yl)pyrimidin-2-yl]amino]cyclohexoxy]-7-morpholino-1,6-naphthyridin-3-yl]methanesulfonamide] the IC50 [1] was 1000 to 10000 nM, the EC50 [2, 3] was 10 to 500 nM and the EC50 [2, 4] was 500 to 1000 nM. For the same compound, the EC50 [2, 5] was 1000 to 10000 nM, the “Fraction … Hypoxic 0.2% O2” value (FaDu cell line) was “B (B is 0.05 to 0.15)” and the “Fraction … Oxic 5% O2” value (FaDu cell line) was “B (B is 0.05 to 0.15)”.
Compound `CC(c1cnc([N+](=O)[O-])n1C)N(c1cnc2cc(N3CCOCC3)nc(O[C@H]3CC[C@@H](Nc4ncc(OC5CCN(C)C5)cn4)CC3)c2c1)S(C)(=O)=O` (stereo partly drawn) [LFA2068, N-[1-(3-methyl-2-nitro-imidazol-4-yl)ethyl]-N-[5-[4-[[5-(1-methylpyrrolidin-3-yl)oxypyrimidin-2-yl]amino]cyclohexoxy]-7-morpholino-1,6-naphthyridin-3-yl]methanesulfonamide] has an IC50 [1] of 1000 to 10000 nM, an EC50 [2, 3] of 500 to 1000 nM and an EC50 [2, 4] of 1000 to 10000 nM. The EC50 [2, 5] was 10000 to 100000 nM, the “Fraction … Hypoxic 0.2% O2” value (FaDu cell line) was “B (B is 0.05 to 0.15)” and the “Fraction … Oxic 5% O2” value (FaDu cell line) was “D (D is 0 to 0.02)”.
`Cn1c(COc2cnc3cc(N4CCOCC4)nc(O[C@H]4CC[C@@H](Nc5ncc(OCCN6CCOCC6)cn5)CC4)c3c2)cnc1[N+](=O)[O-]` [LFA2069, N-[4-[[3-[(3-methyl-2-nitro-imidazol-4-yl)methoxy]-7-morpholino-1,6-naphthyridin-5-yl]oxy]cyclohexyl]-5-(2-morpholinoethoxy)pyrimidin-2-amine] was tested, and the IC50 [1] was 10000 to 30000 nM, the EC50 [2, 3] was 10 to 500 nM and the EC50 [2, 4] was 1000 to 10000 nM. The EC50 [2, 5] was 1000 to 10000 nM, the “Fraction … Hypoxic 0.2% O2” value (FaDu cell line) was “A (A is 0.15 to 1)” and the “Fraction … Oxic 5% O2” value (FaDu cell line) was “C (C is 0.02 to 0.05)”.
Compound `CC(c1cnc([N+](=O)[O-])n1C)N(c1cnc2cc(N3CCOCC3)nc(O[C@H]3CC[C@@H](Nc4ncc(N5CCN(C)CC5)cn4)CC3)c2c1)S(C)(=O)=O` (stereo partly drawn) [LFA2070, N-[1-(3-methyl-2-nitro-imidazol-4-yl)ethyl]-N-[5-[4-[[5-(4-methylpiperazin-1-yl)pyrimidin-2-yl]amino]cyclohexoxy]-7-morpholino-1,6-naphthyridin-3-yl]methanesulfonamide] has an IC50 [1] of 10000 to 30000 nM, an EC50 [2, 3] of 10 to 500 nM and an EC50 [2, 4] of 1000 to 10000 nM. The EC50 [2, 5] was 10000 to 100000 nM, the “Fraction … Hypoxic 0.2% O2” value (FaDu cell line) was “B (B is 0.05 to 0.15)” and the “Fraction … Oxic 5% O2” value (FaDu cell line) was “D (D is 0 to 0.02)”.
Compound `Cn1c(COc2cnc3cc(N4CCOCC4)nc(O[C@H]4CC[C@@H](N(C)c5ncccn5)CC4)c3c2)cnc1[N+](=O)[O-]` [LFA2071, N-methyl-N-[4-[[3-[(3-methyl-2-nitro-imidazol-4-yl)methoxy]-7-morpholino-1,6-naphthyridin-5-yl]oxy]cyclohexyl]pyrimidin-2-amine] has an IC50 [1] of 10000 to 30000 nM, an EC50 [2, 3] of 10 to 500 nM and an EC50 [2, 4] of 1000 to 10000 nM. The EC50 [2, 5] was 1000 to 10000 nM, the “Fraction … Hypoxic 0.2% O2” value (FaDu cell line) was “A (A is 0.15 to 1)” and the “Fraction … Oxic 5% O2” value (FaDu cell line) was “B (B is 0.05 to 0.15)”.
`CN1CCN(c2cnc(N[C@H]3CC[C@@H](Oc4nc(N5CCOCC5)cc5ncc(N(Cc6cnn(C)c6[N+](=O)[O-])S(C)(=O)=O)cc45)CC3)nc2)CC1` [LFA2072, N-[(1-methyl-5-nitro-pyrazol-4-yl)methyl]-N-[5-[4-[[5-(4-methylpiperazin-1-yl)pyrimidin-2-yl]amino]cyclohexoxy]-7-morpholino-1,6-naphthyridin-3-yl]methanesulfonamide] showed an IC50 [1] of 1000 to 10000 nM, an EC50 [2, 3] of 10 to 500 nM and an EC50 [2, 4] of 10 to 500 nM. The EC50 [2, 5] was 1000 to 10000 nM, the “Fraction … Hypoxic 0.2% O2” value (FaDu cell line) was “B (B is 0.05 to 0.15)” and the “Fraction … Oxic 5% O2” value (FaDu cell line) was “B (B is 0.05 to 0.15)”.
With `CC(c1cnn(C)c1[N+](=O)[O-])N(c1cnc2cc(N3CCOCC3)nc(O[C@H]3CC[C@@H](Nc4ncc(OCCN(C)C)cn4)CC3)c2c1)S(C)(=O)=O` (stereo partly drawn) [LFA2073, N-[5-[4-[[5-[2-(dimethylamino)ethoxy]pyrimidin-2-yl]amino]cyclohexoxy]-7-morpholino-1,6-naphthyridin-3-yl]-N-[1-(1-methyl-5-nitro-pyrazol-4-yl)ethyl]methanesulfonamide] the IC50 [1] was 1000 to 10000 nM, the EC50 [2, 3] was 10 to 500 nM and the EC50 [2, 4] was 1000 to 10000 nM. The EC50 [2, 5] was 1000 to 10000 nM, the “Fraction … Hypoxic 0.2% O2” value (FaDu cell line) was “B (B is 0.05 to 0.15)” and the “Fraction … Oxic 5% O2” value (FaDu cell line) was “C (C is 0.02 to 0.05)”.
Compound `CC(c1cnc([N+](=O)[O-])n1C)N(c1cnc2cc(N3CCOCC3)nc(O[C@H]3CC[C@@H](Nc4ncc(CCN5CCOCC5)cn4)CC3)c2c1)S(C)(=O)=O` (stereo partly drawn) [LFA2074, N-[1-(3-methyl-2-nitro-imidazol-4-yl)ethyl]-N-[7-morpholino-5-[4-[[5-(2-morpholinoethyl)pyrimidin-2-yl]amino]cyclohexoxy]-1,6-naphthyridin-3-yl]methanesulfonamide] has an IC50 [1] of 1000 to 10000 nM, an EC50 [2, 3] of 10 to 500 nM and an EC50 [2, 4] of 500 to 1000 nM. The EC50 [2, 5] was 1000 to 10000 nM, the “Fraction … Hypoxic 0.2% O2” value (FaDu cell line) was “B (B is 0.05 to 0.15)” and the “Fraction … Oxic 5% O2” value (FaDu cell line) was “C (C is 0.02 to 0.05)”.
With `CN(C)CCOc1cnc(N[C@H]2CC[C@@H](Oc3nc(N4CCOCC4)cc4ncc(N(Cc5cnn(C)c5[N+](=O)[O-])S(C)(=O)=O)cc34)CC2)nc1` [LFA2075, N-[5-[4-[[5-[2-(dimethylamino)ethoxy]pyrimidin-2-yl]amino]cyclohexoxy]-7-morpholino-1,6-naphthyridin-3-yl]-N-[(1-methyl-5-nitro-pyrazol-4-yl)methyl]methanesulfonamide] the IC50 [1] was 1000 to 10000 nM, the EC50 [2, 3] was 10 to 500 nM and the EC50 [2, 4] was 500 to 1000 nM. For the same compound, the EC50 [2, 5] was 1000 to 10000 nM, the “Fraction … Hypoxic 0.2% O2” value (FaDu cell line) was “B (B is 0.05 to 0.15)” and the “Fraction … Oxic 5% O2” value (FaDu cell line) was “B (B is 0.05 to 0.15)”.
For `Cn1ncc(CN(c2cnc3cc(N4CCOCC4)nc(O[C@H]4CC[C@@H](Nc5ncc(OCCN6CCOCC6)cn5)CC4)c3c2)S(C)(=O)=O)c1[N+](=O)[O-]` [LFA2076, N-[(1-methyl-5-nitro-pyrazol-4-yl)methyl]-N-[7-morpholino-5-[4-[[5-(2-morpholinoethoxy)pyrimidin-2-yl]amino]cyclohexoxy]-1,6-naphthyridin-3-yl]methanesulfonamide], the IC50 [1] was 1000 to 10000 nM, the EC50 [2, 3] was 10 to 500 nM and the EC50 [2, 4] was 10 to 500 nM. For the same compound, the EC50 [2, 5] was 10 to 500 nM, the “Fraction … Hypoxic 0.2% O2” value (FaDu cell line) was “B (B is 0.05 to 0.15)” and the “Fraction … Oxic 5% O2” value (FaDu cell line) was “B (B is 0.05 to 0.15)”.
Compound `CC(c1cnn(C)c1[N+](=O)[O-])N(c1cnc2cc(N3CCOCC3)nc(O[C@H]3CC[C@@H](Nc4ncc(OCCN5CCOCC5)cn4)CC3)c2c1)S(C)(=O)=O` (stereo partly drawn) [LFA2077, N-[1-(1-methyl-5-nitro-pyrazol-4-yl)ethyl]-N-[7-morpholino-5-[4-[[5-(2-morpholinoethoxy)pyrimidin-2-yl]amino]cyclohexoxy]-1,6-naphthyridin-3-yl]methanesulfonamide] has an IC50 [1] of 1000 to 10000 nM, an EC50 [2, 3] of 10 to 500 nM and an EC50 [2, 4] of 500 to 1000 nM. The EC50 [2, 5] was 10 to 500 nM, the “Fraction … Hypoxic 0.2% O2” value (FaDu cell line) was “B (B is 0.05 to 0.15)” and the “Fraction … Oxic 5% O2” value (FaDu cell line) was “B (B is 0.05 to 0.15)”.
